In patent US4578395A, “Certain aralkylaminoalkyl esters of 1,4 dihydropyridines as antihypertensive” (Teijin Limited, priority 1983, dated 1986):
Where a name gives a salt, the structure may show the parent alone.

Assays:
platelet aggregation = test: In vitro inhibitory activity of platelet aggregation; format: cell-based, male Hartley guinea pigs; conditions: AA 75 μM; for inhibition at 100 µM: Cavia porcellus, Platelet, Conc. 100 μM
Method: The in vitro platelet aggregation inhibiting activities of the compounds of the invention were examined by using guinea pigs. Blood was withdrawn by cardiac puncture from male Hartley guinea pigs weighing […]. A mixture of a 3.8% trisodium citrate solution and the blood in a ratio of 1:9 was centrifuged at a speed of 800 rpm for 10 minutes. The upper layer was separated as platelet-rich plasma (PRP). The lower layer was further centrifuged at a separated as platelet-poor plasma (PPP). The number of platelets was adjusted to 5×10^5 /μl to 6×10^5 /μl by filuting the PRP with PPP. 25 microliters of the test compounds prepared as shown below was added in an amount of 25 microliters of PRP after the adjustment, and the mixture was pre-incubated at 37° C. for 2 minutes, and then 75 μM (final) of AA was added. By using an aggregometer (37° C., 1,100 rpm), changes in transmission were recorded.
The test compound was dissolved in ethanol to a concentration of 10 mg/ml. When its activity was measured, it was used after being diluted with phosphate buffer (pH 7.4). Furthermore, after dilution with the buffer, the test compound was left to stand at 0° C. for 4 hours, and the activity of the test compound was similarly measured.
The rate of inhibition of platelet aggregation was determined from the following equation. [formula]

Ca^++ contraction = test: Activity of calcium ion blocking action (thoracic aorta strips); design: species or system male wister rat
Method: Spillay cut strips of thoracic arota were obtained from male wister rat and mounted in K-depalarized solution. 30-40 min. after treatment of compound (140) hydrochloride various concentration of Ca^++ were applied and concentration-response curve of calcium ion (Ca^++) was obtained.

conscious rats = test: Antihypertensive activity by oral administration in conscious rats; format: in vivo, Male Wistar rats; conditions: 10 mg/kg oral
Method: When one hour or more passed after the rats were aroused, they were administered the test compound orally.
The blood pressure in the femoral artery was recorder and changes in the mean blood pressure were obtained from the following equation. [formula]

[1] = test system: cerebral blood vessels (common carotid artery); test: Action on cerebral blood vessels (carotic blood flow) in anesthetized dog; format: in vivo, male beagle dog; conditions: 3 μg/kg i.v.
Method: (§1) A male beagle dog weighing about 10 kg was anesthetized with sodium pentobarbital (35 mg/kg i.v.). The test compound was dissolved in a small quantity of ethanol, diluted with an isotonic sodium chloride solution, and was injected into the right femoral vein.
(§2) The carotic blood flow (CBF) and the femoral blood flow (FBF) were measured with the electromagnetic blood flowmeter (MFV-1200 made by Japan Photoelectric Co., Ltd.) via probe for measuring the blood flow volume set in the right common carotid artery and the left femoral artery of the male beagle dog respectively.

myocardium = test: Action on myocardium (Max dLVP/dt) in anesthetized dog; format: in vivo, male beagle dog; conditions: 10 μg/kg i.v.
Method: as §1
The left ventricular pressure (LVP) was measured with the pressure transducer via the cannula which was inserted from the left common carotid artery into the left ventricle and the recorded pressure was differentiated to calculate the max (dLVP/db), thus measuring the pharmacological action of the test compound on the myocardium. […] The Basic and Clinical Study, vol. 14, 4477 (1980) is a useful literature to be consulted with for making this kind of experiment. It is apparent from Table 6 that the compound of this invention has less exciting action on the myocardium than nicardipine.

mean blood pressure = test: Action on mean blood pressure in anesthetized dog; format: in vivo, male beagle dog; conditions: 10 μg/kg i.v.
Method: as §1
The mean blood pressure (MBP) was measured with the pressure transwer via the cannula inserted into the right femoral artery of the male beagle dog. The changes in the blood pressure after the administration of the test compound are shown in percentages in Table 5.

[2] = test system: SHR (Spontaneously Hypertensive Rats); test: Antihypertensive activity in SHR; format: in vivo, Male SHR (Spontaneously Hypertensive Rats); conditions: no anesthesia
Method: Male SHR (14 to 16 weeks old) fasted for more than 16 hours were used. […] When one hour or more passed after the rats woke up out of the ether, they were administered the test compound orally. The blood pressure was measured with the pressure transducer via the catheter inserted into the femoral artery.
The test compound was dissolved in a small quantity of ethanol and diluted with water to be adjusted for administration.
Changes in the mean blood pressure were obtained from the equation mentioned below. The Basic and Clinical Study, vol. 14, p. 4495 (1980) is a useful literature to be referred to for making this kind of experiment. [formula]

[3] = test system: peripheral blood vessels (femoral artery); test: Action on peripheral blood vessels (femoral blood flow) in anesthetized dog; format: in vivo, male beagle dog; conditions: 3 μg/kg i.v.
Method: as §1, §2

[4] = Light stability in methanol solution; format: physicochemical; conditions: light, read-out: Remaining percentage
Method: 1 mg of compound (156) hydrochloride was dissolved in 100 ml of methanol. The solution was placed in a transparent glass test tube, and after the test tube was tightly stoppered, it was allowed to stand by the window of the laboratory. Part of the solution was taken at regular intervals and subjected to high performance liquid chromatograph to determined the remaining quantity of compound (156) hydrochloride contained in the solution. The same experiment was conducted with nicardipine hydrochloride as the control.

anesthetized rats = test: Hypotensive activity by intravenous administration in anesthetized rats (Example 23); format: in vivo, Male Wistar rats
Method: Male Wistar rats weighing about 250 g were used. They were anesthetized with urethane (500 mg/kg) and α-chloralose (100 mg/kg) intraperitoneal injection.
The test compound was dissolved in a small quantity of ethanol and the solution, which was then diluted with physiological saline to have a final concentration of ethanol kept at 5% or lower, was intravenously injected through a catheter inserted into the femoral vein.
The blood pressure was recorded with the pressure transducer via the catheter inserted into the common carotid artery of the rats.
Hypotensive activity of the test compound was indicated by the dose (ED20 μ/kg) required for decreasing the mean blood pressure by 20% as compared with the mean blood pressure before the administration.
To determine the duration of the hypotensive action of the test compound, half-life of hypotensive action T^1 /2) was measured.

In the case of `COC(=O)C1=C(C)NC(C)=C(C(=O)OCC(C)(C)CN(C)Cc2ccccc2)C1c1cc([N+](=O)[O-])ccc1F` (centres unmarked) [(140) hydrochloride, 3-(N-Benzyl-N-methylamino)-2,2-dimethylpropyl methyl 2,6-dimethyl-4-(2-fluoro-5-nitrophenyl)-1,4-dihydropyridine-3,5-dicarboxylate], the inhibition at 100 µM (platelet aggregation) is reported as -1.1 ± 1.4%, the IC50 (Ca^++ contraction; 30-40 min after treatment, K-depolarized solution, read-out: 50% inhibited concentration to Ca^++ contraction) is reported as 100 pM and the “Changes in mean blood pressure” value (conscious rats; after 30 min) is reported as -36.7 mmHg. The “Changes in mean blood pressure” value (conscious rats; after 60 min) was -35.4 mmHg, the “Changes in mean blood pressure” value (conscious rats; after 90 min) was -36.3 mmHg and the “Changes in mean blood pressure” value (conscious rats; after 2 hr) was -36.2 mmHg. The “Changes in mean blood pressure” value (conscious rats; after 3 hr) was -33.8 mmHg, the “Changes in mean blood pressure” value (conscious rats; after 5 hr) was -32.6 mmHg and the “Changes in mean blood pressure” value (conscious rats; after 7 hr) was -31.7 mmHg. The “Changes in CBF” value ([1]; 0.5 min.) was “+7%”, the “Changes in CBF” value ([1]; 1 min.) was “+14%” and the “Changes in CBF” value ([1]; 2 min.) was “+17%”. The “Changes in CBF” value ([1]; 5 min.) was “+22%”, the “Changes in CBF” value ([1]; 10 min.) was “+22%” and the “Changes in Max dLVP/dt” value (myocardium; 0.5 min.) was 0 ± 2%. For the same compound, the “Changes in Max dLVP/dt” value (myocardium; 1 min.) was “+2 ± 2%”, the “Changes in Max dLVP/dt” value (myocardium; 2 min.) was “+2 ± 3%” and the “Changes in Max dLVP/dt” value (myocardium; 5 min.) was -6 ± 3%. The “Changes in Max dLVP/dt” value (myocardium; 10 min.) was “+6 ± 4%”, the “Changes in Max dLVP/dt” value (myocardium; 15 min.) was “+4 ± 4%” and the “Changes in MBP” value (mean blood pressure; 0.5 min.) was -6 ± 1%. For the same compound, the “Changes in MBP” value (mean blood pressure; 1 min.) was -10 ± 1%, the “Changes in MBP” value (mean blood pressure; 2 min.) was -15 ± 1% and the “Changes in MBP” value (mean blood pressure; 5 min.) was -20 ± 2%. For the same compound, the “Changes in MBP” value (mean blood pressure; 10 min.) was -23 ± 2%, the “Changes in MBP” value (mean blood pressure; 15 min.) was -28 ± 3% and the “Changes in MBP” value ([2]; 3 mg/kg oral, 30 min.) was -68 ± 2 mmHg. The “Changes in MBP” value ([2]; 3 mg/kg oral, 60 min.) was -69 ± 4 mmHg, the “Changes in MBP” value ([2]; 3 mg/kg oral, 90 min.) was -65 ± 2 mmHg and the “Changes in MBP” value ([2]; 3 mg/kg oral, 2 hr.) was -65 ± 2 mmHg. The “Changes in MBP” value ([2]; 3 mg/kg oral, 3 hr.) was -65 ± 2 mmHg, the “Changes in MBP” value ([2]; 3 mg/kg oral, 5 hr.) was -55 mmHg and the “Changes in MBP” value ([2]; 3 mg/kg oral, 7 hr.) was -39 ± 5 mmHg.

For `COC(=O)C1=C(C)NC(C)=C(C(=O)OCCN(C)Cc2ccccc2)C1c1cccc([N+](=O)[O-])c1` (stereo not drawn) [Nicardipine hydrochloride, 4-(3-nitrophenyl)-2,6-dimethyl-1,4-dihydropyridine-3,5-dicarboxylic acid-3-methyl ester-5-β-(N-benzyl-N-methylamino) ethyl hydrochloride, reference compound], the “inhibitory activity of platelet aggregation” value (platelet aggregation; 100 μM) was “has inhibitory activity of platelet aggregation”, the inhibition at 100 µM (platelet aggregation) was 35.2 ± 9.4% and the “50% inhibited concentration to Ca^++ contraction relative to compound (140) hydrochloride” value (Ca^++ contraction; as much as that of compound (140) hydrochloride) was “twice”. For the same compound, the “Changes in mean blood pressure” value (conscious rats; after 30 min) was -26.7 mmHg, the “Changes in mean blood pressure” value (conscious rats; after 60 min) was -19.2 mmHg and the “Changes in mean blood pressure” value (conscious rats; after 90 min) was -18.3 mmHg. For the same compound, the “Changes in mean blood pressure” value (conscious rats; after 2 hr) was -16.3 mmHg, the “Changes in mean blood pressure” value (conscious rats; after 3 hr) was -7.1 mmHg and the “Changes in mean blood pressure” value (conscious rats; after 5 hr) was “+1.3 mmHg”. The “Changes in mean blood pressure” value (conscious rats; after 7 hr) was “+2.5 mmHg”, the “time to peak of FBF after the administration” value [3] was 2 min and the “Changes in FBF” value ([3]; 0.5 min.) was “+7 ± 7%”. The “Changes in FBF” value ([3]; 1 min.) was “+20 ± 9%”, the “Changes in FBF” value ([3]; 2 min.) was “+24 ± 0%” and the “Changes in FBF” value ([3]; 5 min.) was “+17 ± 10%”. The “Changes in FBF” value ([3]; 10 min.) was “+6 ± 0%”, the “time to peak of CBF after the administration” value [1] was “one” and the “Changes in CBF” value ([1]; 0.5 min.) was “+7%”. For the same compound, the “Changes in CBF” value ([1]; 1 min.) was “+14%”, the “Changes in CBF” value ([1]; 2 min.) was “+13%” and the “Changes in CBF” value ([1]; 5 min.) was “+5%”. The “Changes in CBF” value ([1]; 10 min.) was “+3%”, the remaining at 2 h ([4]; 2 hr.) was 98% and the remaining at 4 h ([4]; 4 hr.) was 87%. The remaining at 6 h ([4]; 6 hr.) was 78%, the “Changes in Max dLVP/dt” value (myocardium; 0.5 min.) was “+5 ± 3%” and the “Changes in Max dLVP/dt” value (myocardium; 1 min.) was “+10 ± 7%”. For the same compound, the “Changes in Max dLVP/dt” value (myocardium; 2 min.) was “+38 ± 23%”, the “Changes in Max dLVP/dt” value (myocardium; 5 min.) was “+42 ± 24%” and the “Changes in Max dLVP/dt” value (myocardium; 10 min.) was “+31 ± 18%”. For the same compound, the “Changes in Max dLVP/dt” value (myocardium; 15 min.) was “+6 ± 11%”, the “time to peak of antihypertensive action after the administration” value (mean blood pressure) was “one” and the “Changes in MBP” value (mean blood pressure; 0.5 min.) was -17 ± 2%. For the same compound, the “Changes in MBP” value (mean blood pressure; 1 min.) was -18 ± 3%, the “Changes in MBP” value (mean blood pressure; 2 min.) was -16 ± 3% and the “Changes in MBP” value (mean blood pressure; 5 min.) was -11 ± 4%. For the same compound, the “Changes in MBP” value (mean blood pressure; 10 min.) was -7 ± 4%, the “Changes in MBP” value (mean blood pressure; 15 min.) was -8 ± 5% and the “Changes in MBP” value ([2]; 10 mg/kg oral, 30 min.) was -28 ± 13 mmHg. For the same compound, the “Changes in MBP” value ([2]; 10 mg/kg oral, 60 min.) was -29 ± 11 mmHg, the “Changes in MBP” value ([2]; 10 mg/kg oral, 90 min.) was -17 ± 14 mmHg and the “Changes in MBP” value ([2]; 10 mg/kg oral, 2 hr.) was -18 ± 9 mmHg. For the same compound, the “Changes in MBP” value ([2]; 10 mg/kg oral, 3 hr.) was -12 ± 8 mmHg, the “Changes in MBP” value ([2]; 10 mg/kg oral, 5 hr.) was -10 mmHg and the “Changes in MBP” value ([2]; 10 mg/kg oral, 7 hr.) was -11 ± 6 mmHg. For the same compound, the ED20 (anesthetized rats; Rattus norvegicus, iv, anesthetized Wistar rats about 250 g, read-out: ED20 (dose decreasing mean blood pressure by 20%)) was 0.021 mg/kg and the “Duration T1/2 (half-life of hypotensive action)” value (anesthetized rats; i.v., dose 30) was 4.2 min.
